Laboratory results: patent publication US20100120738A1, “ANTI-APOPTOTIC BENZODIAZEPINE RECEPTOR LIGAND INHIBITORS” (priority 2006, published 2010)
pIC50: −log10 of the molar value. Where two headings read alike, the source gives them in different places.

Experiments:
[1] = tested on: Bovine capillary endothelial cells; test: Protection against radiation-induced apoptosis (DAPI apoptotic index); type: cell-based; conditions: low doses; FIG. 13 and FIG. 14
Method: Bovine capillary endothelial cells were cultured on eight chamber Labtek slides and exposed to ionizing radiation (20 Gy) for 6 hours. After this time, cells were either left untreated or treated with compound at the concentration indicated on the x-axis. Cells were then fixed in methanol and stained with 5 μg/ml DAPI and DNA was visualized using a Nikon epifluorescence microscope, and apoptosis scored and expressed as an apoptotic index according to the percentage of apoptotic cells in a field of 100 cells. Open bars indicate apoptotic index following irradiation. Hatched bars indicate apoptotic index for control cells not receiving a dose of ionizing radiation.
(§1) Bovine capillary endothelial cells were cultured on eight-chamber Labtek slides and exposed to ionizing radiation (20 Gy), which was calibrated using an X-ray exposure meter. […] In control experiments, cells either received no ionizing radiation (sham) or no compound. After 6 h incubation, the cells were fixed in methanol and stained with 5 μg/ml 4,6-diamidino-2-phenylindole (DAPI). DNA was visualized using a Nikon epifluorescence microscope, and apoptosis was scored and expressed as an apoptotic index (% apoptotic cells in a field of 100).

[2] = Superoxide dismutase (SOD) activity; type: biochemical
[3] = Lipophilicity by octanol partitioning; type: physicochemical; conditions: octanol-water
Method: To indicate the likelihood that the compounds will cross lipid membranes and be absorbed once administered by oral means, their lipophilicities were determined by octanol partitioning. […] Quantitation was performed by HPLC-UV.

[4] = tested on: PC12 cells; test: Protection against STS-induced apoptosis in PC12 cells (XTT viability assay); type: cell-based, rat
Method: Rat pheochromocytoma (PC12) cells were cultured in collagen-coated 96-well plates according to directions provided by the American Type Culture Collection. Staurosporine was added at various concentrations sufficient to induce apoptosis. Test compounds were added together with the staurosporine. Cells were incubated overnight at 37° C., 5% CO2. After 18-24 hours, test media was removed and cell viability was determined using the XTT viability assay described by Baker et al., J. Pharmacol. Exp, Therapeutics 284, 215-221, 1998, the contents of which are incorporated herein by reference.

[5] = tested on: Bovine capillary endothelial cells; test: Cytotoxicity/necrosis of non-irradiated cells (LDH release, field number); type: cell-based
Method: as §1, with “100). […] Field number was also calculated for all other compounds tested as a control (results not shown).” for “100).”
To determine cytotoxicity of the compounds under these conditions, duplicate samples of the cells receiving a dose of compound at each concentration tested in the absence of a dose of ionizing radiation were assayed for release of LDH into the culture medium.

[6] = tested on: cultured mesencephalic tissue slices; test: MPP+ induced neurodegeneration in cultured mesencephalic tissue slices (LDH release); type: cell-based, rat; conditions: 20 μM MPP+; compound 100 nM, 1.0 μM, 10 μM; FIG. 17
Method: FIG. 17 is a graphical representation showing the effects of exemplary low molecular weight metalloporphyrin compounds of the present invention on MPP+ induced neurodegeneration in cultured mesencephalic tissue slices. Mesencephalic tissue slices were prepared from PND 3-5 rats and maintained in culture for 2 weeks. The tissue slices were incubated with a porphyrin compound as indicated on the x-axis for 6 hours before adding 20 μM MPP+ to induce neuronal apoptosis. Concentrations of each porphyrin compound tested were 100 nM ? 1.0 μM ? and 10 μM ? Following a further incubation for 48 hours, the slices were collected and the level of lactate dehydrogenase (LDH) released into the medium was determined.

[7] = Stability in USP simulated gastric fluid (SGF); type: in vitro ADME; conditions: 37° C., pH approx. 1.2
Excerpt: Aliquots of SGF were withdrawn and intact compound quantitated by HPLC-UV.

[8] = Oral bioavailability in vivo, plasma levels by LC-MS/MS after intragastric gavage; parameters: species or system rat
Method: FIG. 18 is a graphical representation showing the bioavailability in vivo for the compounds {[{(Porphine-5,15-diyl)bis[cyclopropyl-diyl]}](2-)-N^21,N^22,N^23,N^24} manganese(III) acetate (EUK-418) and {[{(Porphine-5,15-diyl)bis[benzyl-diyl]}](2-)-N^21,N^22,N^23,N^24} manganese(III) acetate (EUK-423) in rats. Fasted and fed Sprague-Dawley rats were dosed by intragastric gavage with either 4 mg/kg EUK-418 or 2 mg/kg EUK-423. At the times indicated on the x-axis, plasma was obtained from the animals and the concentrations of compounds determined by LC-MS/MS.
Fasted and fed Sprague-Dawley rats were dosed by intragastric gavage with either 4 mg/kg EUK-418 or 2 mg/kg EUK-423. At time points up to 7 hr post-administration, animals were sacrificed, their blood collected over heparin, plasma samples prepared by centrifugation, and plasma levels of the compounds were determined by LC-MS/MS.

[9] = Brain uptake (brain level over plasma level); type: in vivo; conditions: above 20 ul/g indicates delivery across the blood-brain barrier
Method: In further studies, compounds are administered orally to animals as described above, or alternatively, by daily i.p. injection for up to five days at concentrations of about 0.3 mg/kg body weight, 3.0 mg/kg and 30 mg/kg. The animals are then sacrificed and their brains removed and snap-frozen in liquid nitrogen. The brains are homogenized in methanol containing 5% TCA, and the soluble fraction is prepared by centrifugation.
Levels of compounds in the brain tissue are determined by LC-MS (HPLLC, Waters; Mass Spectrometer, Micromass Quattro). The half-life of each compound administered to the animals is determined over a period of time from about 5 minutes up to about 2 days.
Brain bioavailability is determined by calculating brain uptake at all time points. Brain uptake is the ratio of brain levels (as moles/g tissue) over plasma levels (as […] and is expressed as ul/g. One gram of brain tissue contains approximately 20 ul of plasma. Thus, any brain uptake value above 20 ul/g is indicative of delivery across the blood-brain barrier to the brain parenchyma. For example, the brain uptake values for EUK-418 are in excess of about 100 ul/g.

C1=Cc2nc1cc1ccc([n-]1)c(C1CC1)c1nc(cc3ccc([n-]3)c2C2CC2)C=C1.CC(=O)[O-].[Mn+3] [EUK-418, {[{(Porphine-5,15-diyl)bis[cyclopropyl-diyl]}](2-)-N^21,N^22,N^23,N^24} manganese(III) acetate]
protection of cells exposed to ionizing radiation [1]: protected
pIC50 ([2]; cuvette format, read-out: Cuvette IC50): 5.08
pIC50 ([2]; microplate format, read-out: Microplate IC50): 6.42
Log10 P value [3]: 0.548 ± 0.009
P value (octanol partitioning coefficient) [3]: 3.53 ± 0.14
effect on staurosporine-induced apoptosis of PC12 cells ([4]; FIG. 11): effectively reduce apoptosis
effect on staurosporine-induced apoptosis of PC12 cells ([4]; FIG. 12, at up to about 5 μM concentration, toxicity blunts protection at high concentrations): effectively reduce apoptosis
necrosis at the protective concentration ([5]; 3 μM EUK-418, about 3-10 μM EUK-423): failed to induce noticeable necrosis
concentration causing significant increase in field number for control cells, indicating cytotoxicity ([5]; control cells without ionizing radiation): ≥ 30 µM
prevention of cytotoxicity induced by MPP+ [6]: prevent cytotoxicity
Percentage remaining after 90 mins in SGF [7]: 92.2%
effect of fasting of animals on plasma concentration ([8]; 4 mg/kg intragastric gavage): increase plasma concentration
plasma concentration to which compound declined for the assayed period ([8]; 4 mg/kg intragastric gavage, fasted rats, up to 7 hr): about 100 ng/ml
plasma time course ([8]; intragastric gavage, 4 mg/kg EUK-418 or 2 mg/kg EUK-423): increased rapidly in serum of fasted rats
found in plasma / bioavailable after oral administration ([8]; intragastric gavage, 4 mg/kg EUK-418 or 2 mg/kg EUK-423, fasted and fed rats): bioavailable in vivo
brain uptake value (brain level / plasma level) [9]: > 100 µL/g
